Literature values in patent EP2392318A1 (Laboratorios Liconsa, S.A., priority 2010, dated 2011).

terminal half-life (after being orally administered): about 2 hours
orally absorbed (in the gastrointestinal tract): about 33%
SMILES: CCCCc1nc(Cl)c(CO)n1Cc1ccc(-c2ccccc2-c2nn[nH]n2)cc1 [losartan, 2-butyl-4-chloro-1-[[2'-(1H-tetrazol-5-yl)[1,1'-biphenyl]-4-yl]methyl]-1H-imidazole-5-methanol]
